Experimental data published in patent US11149037B2, “Pyrazole MAGL inhibitors” (H. Lundbeck A/S, priority 2017, dated 2021).

Assays:
MAGL [1] = target: MAGL (Mus musculus (Mouse), UniProt O35678); assay: In vitro competitive activity-based protein profiling, mouse proteomes (brain membrane fraction or cell lysates); type: biochemical; conditions: mouse proteome, read-out: MAGL % inh. 1 μM (mouse)
Description: (§1) In Vitro Competitive Activity-Based Protein Profiling.
(§2) Proteomes (mouse brain membrane fraction or cell lysates for mouse assays; human prefrontal cortex or PC3 cell membrane fractions for human assays) (50 μL, 1.0 or 2.0 mg/mL total protein concentration) were preincubated with varying concentrations of inhibitors at 37° C. After 30 min, FP-Rh or JW912 or HT-01 (1.0 μL, 50 μM in DMSO) was added and the mixture was incubated for another 30 min at 37° C. Reactions were quenched with SDS loading buffer (15 μL-4×) and run on SDS-PAGE. Following gel imaging, serine hydrolase activity was determined by measuring fluorescent intensity of gel bands corresponding to MAGL and FAAH using ImageJ 1.43u software.

MAGL [2] = target: MAGL (Homo sapiens (Human), UniProt Q99685); assay: In vitro competitive activity-based protein profiling, human proteomes (prefrontal cortex or PC3 cell membrane fractions); type: biochemical; conditions: human proteome; for inhibition at 1 µM: read-out: MAGL % inh. 1 μM (human); for inhibition at 10 µM: read-out: MAGL % inh. (human) @ 10 μM
Description: as §1, §2

Sequence of MAGL (Mus musculus (Mouse), UniProt O35678) (O35678 whole entry): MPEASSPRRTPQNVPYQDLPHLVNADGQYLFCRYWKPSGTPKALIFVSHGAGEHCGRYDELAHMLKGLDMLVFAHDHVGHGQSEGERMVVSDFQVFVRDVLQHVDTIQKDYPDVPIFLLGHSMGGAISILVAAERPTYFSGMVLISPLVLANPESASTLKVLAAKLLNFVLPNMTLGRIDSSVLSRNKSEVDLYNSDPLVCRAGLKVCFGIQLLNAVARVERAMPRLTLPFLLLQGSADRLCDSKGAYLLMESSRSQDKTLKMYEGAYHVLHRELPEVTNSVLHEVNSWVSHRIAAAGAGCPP
Sequence of MAGL (Homo sapiens (Human), UniProt Q99685) (Q99685 whole entry): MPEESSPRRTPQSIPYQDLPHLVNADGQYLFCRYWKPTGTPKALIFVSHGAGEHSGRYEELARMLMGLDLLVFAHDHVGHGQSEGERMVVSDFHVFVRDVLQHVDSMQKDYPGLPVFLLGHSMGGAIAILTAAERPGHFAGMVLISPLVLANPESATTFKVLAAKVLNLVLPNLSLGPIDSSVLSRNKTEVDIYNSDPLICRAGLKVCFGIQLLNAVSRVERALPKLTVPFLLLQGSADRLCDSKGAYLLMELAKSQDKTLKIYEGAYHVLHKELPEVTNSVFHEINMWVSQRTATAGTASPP

inhibition at 1 µM (MAGL [1]) [%] | inhibition at 1 µM (MAGL [2]) [%] | IC50 (MAGL [2]) [µM] | inhibition at 10 µM (MAGL [2]) [%] | SMILES
 | > 75 |  |  | CS(=O)(=O)Nc1ccn(C(=O)N2CCN(Cc3ccc(F)c(Oc4ccccc4)c3)CC2)n1 [Example 222, N-(1-(4-(4-Fluoro-3-phenoxy-benzyl)piperazine-1-carbonyl)-1H-pyrazol-3-yl)methane-sulfonamide]
> 75 | > 75 | < 0.1 |  | CC(=O)Nc1ccn(C(=O)N2CCC3(CCN(Cc4cccc(C(F)(F)F)c4)C3)CC2)n1 [Example 175, N-(1-(2-(3-(Trifluoromethyl)benzyl)-2,8-diazaspiro[4.5]decane-8-carbonyl)-1H-pyrazol-3-yl)acetamide]
> 75 | > 75 |  |  | C[C@@H]1CN(C(=O)n2ccc(NS(C)(=O)=O)n2)CCN1Cc1ccc(Cl)c(N2CCC[C@H]2C)c1 [Example 200, N-(1-((R)-4-(4-Chloro-3-((R)-2-methylpyrrolidin-1-yl)benzyl)-3-methylpiperazine-1-carbonyl)-1H-pyrazol-3-yl)methanesulfonamide]
 | > 75 |  |  | CS(=O)(=O)Nc1ccn(C(=O)N2CCN(Cc3ccc(F)c(OC(F)(F)F)c3)CC2)n1 [Example 218, N-(1-(4-(4-Fluoro-3-(trifluoromethoxy)benzyl)piperazine-1-carbonyl)-1H-pyrazol-3-yl)methane-sulfonamide]
 | > 75 |  |  | CS(=O)(=O)Nc1ccn(C(=O)N2CCN(Cc3ccc(Cl)c(C(F)(F)F)c3)CC2)n1 [Example 214, N-(1-(4-(4-Chloro-3-(trifluoromethyl)benzyl)piperazine-1-carbonyl)-1H-pyrazol-3-yl)methane-sulfonamide]
 | > 75 |  |  | Cc1c(CN2CCN(C(=O)n3ccc(NS(C)(=O)=O)n3)CC2)cccc1C(F)(F)F [Example 220, N-(1-(4-(2-Methyl-3-(trifluoromethyl)benzyl)piperazine-1-carbonyl)-1H-pyrazol-3-yl)methane-sulfonamide]
 | > 75 |  |  | C[C@@H]1CN(C(=O)n2ccc(NS(C)(=O)=O)n2)CCN1Cc1ccc(Cl)c(N2CC[C@H](F)C2)c1 [Example 203, N-(1-((R)-4-(4-Chloro-3-((S)-3-fluoropyrrolidin-1-yl)benzyl)-3-methylpiperazine-1-carbonyl)-1H-pyrazol-3-yl)methanesulfonamide]
 | > 75 |  |  | CC(=O)Nc1ccn(C(=O)N2CCN(Cc3ccc(-c4ccccc4)cc3C)C[C@@H]2C)n1 [Example 207, (S)-N-(1-(2-Methyl-4-((3-methyl-[1,1′-biphenyl]-4-yl)methyl)piperazine-1-carbonyl)-1H-pyrazol-3-yl)acetamide]
 | > 75 |  |  | CS(=O)(=O)Nc1ccn(C(=O)N2CCN(Cc3cccc(C(F)(F)F)c3Cl)CC2)n1 [Example 219, N-(1-(4-(2-Chloro-3-(trifluoromethyl)benzyl)piperazine-1-carbonyl)-1H-pyrazol-3-yl)methane-sulfonamide]

More lines, now with the values behind:

SMILES | inhibition at 1 µM (MAGL [1]) [%] | inhibition at 1 µM (MAGL [2]) [%] | IC50 (MAGL [2]) [µM] | inhibition at 10 µM (MAGL [2]) [%]
C[C@H]1CN(C(=O)n2ccc(NS(C)(=O)=O)n2)CCN1Cc1ccc(Cl)c(N2CCCC2)c1 [Example 42, (S)-N-(1-(4-(4-Chloro-3-(pyrrolidin-1-yl)benzyl)-3-methylpiperazine-1-carbonyl)-1H-pyrazol-3-yl)methanesulfonamide] | > 75 | > 75 |  | 
C[C@H]1CN(Cc2ccc(C(F)(F)F)c(N3CC4COCC4C3)c2)CCN1C(=O)n1ccc(NS(C)(=O)=O)n1 (stereo partly drawn) [Example 178, N-(1-((2S)-2-Methyl-4-(3-(tetrahydro-1H-furo[3,4-c]pyrrol-5(3H)-yl)-4-(trifluoromethyl)benzyl)piperazine-1-carbonyl)-1H-pyrazol-3-yl)methanesulfonamide] | > 75 | > 75 | < 0.1 | 
CC(C)C1CCN(c2cc(CN3CCN(C(=O)n4ccc(NS(C)(=O)=O)n4)CC3)ccc2Cl)CC1 [Example 213, N-(1-(4-(4-Chloro-3-(4-isopropyl-piperidin-1-yl)benzyl)piperazine-1-carbonyl)-1H-pyrazol-3-yl)methane-sulfonamide] |  | > 75 |  | 
C[C@@H]1CN(Cc2ccc(C(F)(F)F)c(N3CC4COCC4C3)c2)CCN1C(=O)n1ccc(NS(C)(=O)=O)n1 (stereo partly drawn) [Example 180, N-(1-((2R)-2-Methyl-4-(3-(tetrahydro-1H-furo[3,4-c]pyrrol-5(3H)-yl)-4-(trifluoromethyl)benzyl)piperazine-1-carbonyl)-1H-pyrazol-3-yl)methanesulfonamide] | > 75 | > 75 | < 0.1 | 
CS(=O)(=O)Nc1ccn(C(=O)N2CCN(Cc3ccc(Cl)c(N4CCC(C#N)CC4)c3)CC2)n1 [Example 211, N-(1-(4-(4-Chloro-3-(4-cyano-piperidin-1-yl)benzyl)piperazine-1-carbonyl)-1H-pyrazol-3-yl)methane-sulfonamide] |  | > 75 |  | 
C[C@@H]1CN(C(=O)n2ccc(NS(C)(=O)=O)n2)CCN1Cc1ccc(Cl)c(N2CCC(F)(F)CC2)c1 [Example 201, (R)-N-(1-(4-(4-Chloro-3-(4,4-difluoropiperidin-1-yl)benzyl)-3-methylpiperazine-1-carbonyl)-1H-pyrazol-3-yl)methanesulfonamide] | > 75 | > 75 |  | 
CS(=O)(=O)Nc1ccn(C(=O)N2CCC3(CCCN3Cc3ccc(Cl)cc3N3CC4COCC4C3)CC2)n1 (stereo not shown) [Example 205, N-(1-(1-(4-Chloro-2-(tetrahydro-1H-furo[3,4-c]pyrrol-5(3H)-yl)benzyl)-1,8-diazaspiro[4.5]decane-8-carbonyl)-1H-pyrazol-3-yl)methanesulfonamide] |  | > 75 |  | 
C[C@@H]1CN(C(=O)n2ccc(NS(C)(=O)=O)n2)CCN1Cc1ccc(Cl)c(N2CCC(C(F)(F)F)CC2)c1 [Example 202, (R)-N-(1-(4-(4-Chloro-3-(4-(trifluoromethyl)piperidin-1-yl)benzyl)-3-methylpiperazine-1-carbonyl)-1H-pyrazol-3-yl)methanesulfonamide] | > 75 | > 75 |  | 
CC(=O)Nc1ccn(C(=O)N2CCC(N(C)Cc3cc(C(F)(F)F)cc(C4(C(=O)O)CCCC4)c3)CC2)n1 [Example 193, 1-(3-(((1-(3-Acetamido-1H-pyrazole-1-carbonyl)piperidin-4-yl)(methyl)amino)methyl)-5-(trifluoromethyl)phenyl)cyclopentane-1-carboxylic acid] | > 75 | > 75 |  | 
CS(=O)(=O)Nc1ccn(C(=O)N2CCN(Cc3ccc(OC(F)F)c(OCC4CC4)c3)CC2)n1 [Example 221, N-(1-(4-(3-(Cyclopropyl-methoxy)-4-(difluoro-methoxy)benzyl)piperazine-1-carbonyl)-1H-pyrazol-3-yl)methane-sulfonamide] |  | > 75 |  | 
CN(Cc1ccc(Cl)c(N2CCC(F)CC2)c1)C1CCN(C(=O)n2ccc(NS(C)(=O)=O)n2)CC1 [Example 206, N-(1-(4-((4-Chloro-3-(4-fluoropiperidin-1-yl)benzyl)(methyl)amino)piperidine-1-carbonyl)-1H-pyrazol-3-yl)methanesulfonamide] |  | > 75 |  | 
C[C@@H]1CN(C(=O)n2ccc(NS(C)(=O)=O)n2)CCN1Cc1ccc(Cl)c(C2CCCC2)c1 [Example 215, (R)-N-(1-(4-(4-Chloro-3-cyclopentyl-benzyl)-3-methyl-piperazine-1-carbonyl)-1H-pyrazol-3-yl)methane-sulfonamide] |  | > 75 |  | 
C[C@H]1CN(C(=O)n2ccc(NS(C)(=O)=O)n2)CCN1Cc1ccc(Cl)c(C2CCCC2)c1 [Example 216, (S)-N-(1-(4-(4-Chloro-3-cyclopentyl-benzyl)-3-methyl-piperazine-1-carbonyl)-1H-pyrazol-3-yl)methane-sulfonamide] |  | > 75 |  | 
CS(=O)(=O)Nc1ccn(C(=O)N2CCC3(CCCN3Cc3ccc(Cl)cc3N3CCC(F)CC3)CC2)n1 [Example 204, N-(1-(1-(4-Chloro-2-(4-fluoropiperidin-1-yl)benzyl)-1,8-diazaspiro[4.5]decane-8-carbonyl)-1H-pyrazol-3-yl)methanesulfonamide] |  | > 75 |  | 
CS(=O)(=O)Nc1ccn(C(=O)N2CCN(Cc3ccc(Cl)c(N4CC5CNCC5C4)c3)CC2)n1 (stereo not shown) [Example 152, N-(1-(4-(4-Chloro-3-(hexahydropyrrolo[3,4-c]pyrrol-2(1H)-yl)benzyl)piperazine-1-carbonyl)-1H-pyrazol-3-yl)methanesulfonamide] |  |  |  | > 75
CS(=O)(=O)Nc1ccn(C(=O)N2CCN(Cc3ccc(Cl)c(F)c3)CC2)n1 [Example 212, N-(1-(4-(4-Chloro-3-fluorobenzyl)piperazine-1-carbonyl)-1H-pyrazol-3-yl)methane-sulfonamide] |  | > 75 |  | 
CC(=O)Nc1ccn(C(=O)N2CCN(Cc3ccc(-c4ccccc4)cc3C)C[C@H]2C)n1 [Example 208, (R)-N-(1-(2-Methyl-4-((3-methyl-[1,1′-biphenyl]-4-yl)methyl)piperazine-1-carbonyl)-1H-pyrazol-3-yl)acetamide] |  | > 75 | < 0.1 | 
CC(=O)Nc1ccn(C(=O)N2CCC(C)(N(C)Cc3ccc(Cl)c(C)c3)CC2)n1 [Example 217, N-(1-(4-((4-Chloro-3-methylbenzyl) (methyl)amino)-4-methyl-piperidine-1-carbonyl)-1H-pyrazol-3-yl)acetamide] |  | > 75 |  | 
CS(=O)(=O)Nc1ccn(C(=O)N2CCC3(CCN(Cc4ccccc4)C3)CC2)n1 [Example 165, N-(1-(2-Benzyl-2,8-diazaspiro[4.5]decane-8-carbonyl)-1H-pyrazol-3-yl)methanesulfonamide] |  |  |  | > 75
